Experimental data: patent publication US20170304388A1, “NEW INDICATION OF CARDIOVASCULAR DRUGS FOR PREPARATION OF CANCER INHIBITION PHARMACEUTICAL COMPOSITION” (LAUNX BIOMEDICAL CO., LTD., priority 2014, published 2017)
Where a name gives a salt, the structure may show the parent alone.

Experiments:
Format in all cases: cell-based
[1] = test system: A549 (Lung Adenocarcinoma); test: Cell viability analysis (WST-1), A549; details: Homo sapiens, A549, 72 h, Table 4, repeated experiments, drug 10 μM, WST-1, read-out: survival rate (viability) of cancer cells, A549
AsPC-1 = test: Cell viability analysis (WST-1), AsPC-1; details: Homo sapiens, ASPC1, 72 h, Table 4, repeated experiments, drug 10 μM, read-out: survival rate (viability) of cancer cells, AsPC-1
Protocol: (§1) Subculture the different types of cancer cells. The cancer cells includes lung cancer, gastric cancer, hepatic cancer, colon cancer, skin cancer, cervical cancer, prostate cancer, bladder cancer, breast cancer, leukemia, pancreatic cancer, ovarian cancer, tongue cancer, osteosarcoma, and renal cancer. The cell numbers were counted and reseed as 2×10^6 in cell culture plate/flask. Then, the culture medium for culturing the cell lines was added to a volume of 10 ml, and the cells were cultured for 2-3 days. Then, the cells were suspended for loading into 96-well plates. The cell number was 3000 cells and the volume of the culture medium was 100 ul each well.
(§2) Removing the original culture medium from 96-well plate. Then add 100 μl of commercially drug at a concentration of 10 μM per well. After 72 hours, add the diluted WST-1 reagent to the well with 100 μl/well, and the diluted WST-1 reagent was acquired from the dilution of 9:1 medium and WST-1 stock reagent. Finally, the total volume of each well are 200 μl/well. Culture the 96-well plate at 37° C. for 30 to 90 minutes. Detecting and calculating the survival rate of each cancer cells with an ELISA reader at OD450 nm. The lower viability of cancer cells represents better inhibition effect via the drugs. Otherwise, the higher viability of cancer cells represents worse inhibition effect via the drugs.
(§3) According to the above mentioned cardiovascular drugs for cancer growth inhibition in Table 3, the inventors took the repeat experiments for the cardiovascular drugs to check the growth inhibitory effects of cancer cells by the cardiovascular drugs. […] 4.

[2] = test system: HCT116 (Colorectal Carcinoma); test: Cell viability analysis (WST-1), HCT116; details: Homo sapiens, HCT-116, 72 h, Table 4, repeated experiments, drug 10 μM, WST-1, read-out: survival rate (viability) of cancer cells, HCT116
[3] = test system: HeLa (Cervix Adenocarcinoma); test: Cell viability analysis (WST-1), HeLa; details: Homo sapiens, HeLa, 72 h, Table 4, repeated experiments, drug 10 μM, WST-1, read-out: survival rate (viability) of cancer cells, HeLa
SAS = test: Cell viability analysis (WST-1), SAS; details: 72 h, Table 4, repeated experiments, drug 10 μM, read-out: survival rate (viability) of cancer cells, SAS
Protocol: as §1, §2, §3

Hep3B = test: Cell viability analysis (WST-1), Hep3B; details: Homo sapiens, Hep3B, 72 h, Table 4, repeated experiments, drug 10 μM, read-out: survival rate (viability) of cancer cells, Hep3B
Protocol: as §1, §2, §3

cancer cell lines = test: Growth inhibitory effects on the panel of cancer cell lines; details: drug 10 μM, 72 hours, WST-1
Description: For cell viability analysis, the cardiovascular drugs include peripheral vasodilator reaming enhancer, angiotensin converting agent inhibitor, hypotension and shock therapeutic agent, diuretic, antiarrhythmic agent, antiarralciton drug, antihypertensive agent, anticoagulant thrombolytic agent, cardiac tonic, intravenous (hemorrhoids) therapeutic agent, are used to test the inhibition effect of cancer cell.

U2OS = test: Cell viability analysis (WST-1), U2OS; details: Homo sapiens, U2OS, 72 h, Table 4, repeated experiments, drug 10 μM, read-out: survival rate (viability) of cancer cells, U2OS
Protocol: as §1, §2, §3

T24 = test: Cell viability analysis (WST-1), T24; details: Homo sapiens, T-24, 72 h, Table 4, repeated experiments, drug 10 μM, read-out: survival rate (viability) of cancer cells, T24
Protocol: as §1, §2, §3

MDA-MB231 = test: Cell viability analysis (WST-1), MDA-MB231; details: Homo sapiens, MDA-MB-231, 72 h, Table 4, repeated experiments, drug 10 μM, read-out: survival rate (viability) of cancer cells, MDA-MB231
[4] = test system: AGS (Gastric Adenocarcinoma); test: Cell viability analysis (WST-1), AGS; details: 72 h, Table 4, repeated experiments, drug 10 μM, WST-1, read-out: survival rate (viability) of cancer cells, AGS
[5] = test system: TSGH-8301 (Urinary Bladder Carcinoma); test: Cell viability analysis (WST-1), TSGH-8301; details: 72 h, Table 4, repeated experiments, drug 10 μM, WST-1, read-out: survival rate (viability) of cancer cells, TSGH-8301
[6] = test system: MCF7 (Mammary Gland, Adenocarcinoma); test: Cell viability analysis (WST-1), MCF7; details: Homo sapiens, MCF7, 72 h, Table 4, repeated experiments, drug 10 μM, WST-1, read-out: survival rate (viability) of cancer cells, MCF-7
[7] = test system: HepG2 (Hepatocellular Carcinoma); test: Cell viability analysis (WST-1), HepG2; details: Homo sapiens, HepG2, 72 h, Table 4, repeated experiments, drug 10 μM, WST-1, read-out: survival rate (viability) of cancer cells, HepG2
[8] = test system: H1650 (Lung Adenocarcinoma); test: Cell viability analysis (WST-1), H1650; details: Homo sapiens, NCI-H1650, 72 h, Table 4, repeated experiments, drug 10 μM, WST-1, read-out: survival rate (viability) of cancer cells, H1650
786-O = test: Cell viability analysis (WST-1), 786-O; details: Homo sapiens, 786-0, 72 h, Table 4, repeated experiments, drug 10 μM, read-out: survival rate (viability) of cancer cells, 786-O
Protocol: as §1, §2, §3

BxPC-3 = test: Cell viability analysis (WST-1), BxPC-3; details: Homo sapiens, BXPC-3, 72 h, Table 4, repeated experiments, drug 10 μM, read-out: survival rate (viability) of cancer cells, BxPC-3
Protocol: as §1, §2, §3

[9] = test system: A375 (Amelanotic Melanoma); test: Cell viability analysis (WST-1), A375; details: Homo sapiens, A-375, 72 h, Table 4, repeated experiments, drug 10 μM, WST-1, read-out: survival rate (viability) of cancer cells, A375
[10] = test system: PC3 (Prostate Adenocarcinoma); test: Cell viability analysis (WST-1), PC3; details: 72 h, Table 4, repeated experiments, drug 10 μM, WST-1, read-out: survival rate (viability) of cancer cells, PC-3
[11] = test system: LoVo (Colorectal Adenocarcinoma); test: Cell viability analysis (WST-1), LoVo; details: Homo sapiens, LoVo, 72 h, Table 4, repeated experiments, drug 10 μM, WST-1, read-out: survival rate (viability) of cancer cells, LoVo
C-33A = test: Cell viability analysis (WST-1), C-33A; details: Homo sapiens, C-33-A, 72 h, Table 4, repeated experiments, drug 10 μM, read-out: survival rate (viability) of cancer cells, C-33A
Protocol: as §1, §2, §3

[12] = test system: MKN-45 (Gastric Adenocarcinoma); test: Cell viability analysis (WST-1), MKN-45; details: Homo sapiens, MKN-45, 72 h, Table 4, repeated experiments, drug 10 μM, WST-1, read-out: survival rate (viability) of cancer cells, MKN-45
TOV-21G = test: Cell viability analysis (WST-1), TOV-21G; details: Homo sapiens, TOV21G, 72 h, Table 4, repeated experiments, drug 10 μM, read-out: survival rate (viability) of cancer cells, TOV-21G
Protocol: as §1, §2, §3

NIH-OVCAR-3 = test: Cell viability analysis (WST-1), NIH-OVCAR-3; details: Homo sapiens, OVCAR-3, 72 h, Table 4, repeated experiments, drug 10 μM, read-out: survival rate (viability) of cancer cells, NIH-OVCAR-3
Protocol: as §1, §2, §3

BCC = test: Cell viability analysis (WST-1), BCC; details: BCC, 72 h, Table 4, repeated experiments, drug 10 μM, read-out: survival rate (viability) of cancer cells, BCC

SMILES	viability at 10 µM [1] [%]	viability at 10 µM (AsPC-1) [%]	viability at 10 µM [2] [%]	viability at 10 µM [3] [%]	viability at 10 µM (SAS) [%]	viability at 10 µM (Hep3B) [%]	inhibition effect on different cancer cell lines (in words) (cancer cell lines)	viability at 10 µM (U2OS) [%]	viability at 10 µM (T24) [%]	viability at 10 µM [4] [%]	viability at 10 µM [5] [%]	viability at 10 µM [6] [%]	viability at 10 µM [7] [%]	viability at 10 µM (786-O) [%]	viability at 10 µM (BxPC-3) [%]	viability at 10 µM [9] [%]	viability at 10 µM [11] [%]	viability at 10 µM (C-33A) [%]	viability at 10 µM [12] [%]	viability at 10 µM (TOV-21G) [%]	further results
COC(=O)C1=C(C)NC(C)=C(C(=O)OC2CCCN(Cc3ccccc3)C2)C1c1cccc([N+](=O)[O-])c1 (centres unmarked) [Benidipine hydrochloride]	70.3	63.4	90.6	92.9	64.5	98.8	significant inhibition effect	54.2	61	87.8	81.5	77.3	83.6	78.9	73.8	76	69	105	92.9	47.5	viability at 10 µM (MDA-MB231): 77.3%; viability at 10 µM [8]: 64.5%; viability at 10 µM [10]: 88.5%; viability at 10 µM (NIH-OVCAR-3): 85.2%
CCCCc1nc(Cl)c(CO)n1Cc1ccc(-c2ccccc2-c2nn[nH]n2)cc1 [Losartan potassium]	96	86.4	106	83.4	95.7	103	significant inhibition effect	105	66.3	74.1	92	87.6	93.9	96.3	77.7	96.6	106	108	82.8	78.6	viability at 10 µM (BCC): 90.2%; viability at 10 µM [8]: 77.2%; viability at 10 µM [10]: 120%; viability at 10 µM (NIH-OVCAR-3): 98.7%
COc1cc2nc(N3CCN(C(=O)c4ccco4)CC3)nc(N)c2cc1OC [Prazosin HCl]	72.2	80.4	96.4	90.9	114	116	significant inhibition effect	98	88.5	86.8	99.8	87.6	87.2	79.5	54	77.9	95.7	97.2	70.1	91.9	viability at 10 µM (BCC): 73.5%; viability at 10 µM (MDA-MB231): 85.1%; viability at 10 µM (NIH-OVCAR-3): 88.9%
